# Test results taken from article PMC6017357, “In Vitro Inhibitory Effects of Synthetic Cannabinoid EAM-2201 on Cytochrome P450 and UDP-Glucuronosyltransferase Enzyme Activities in Human Liver Microsomes” (Molecules : A Journal of Synthetic Chemistry and Natural …, 2018).
# Target: T1, UGT1A6 (Homo sapiens, UniProt P19224)
# T1 construct: ultrapooled human liver microsomes (0.2 mg/mL), 5 mM UDPGA; from tissue; host or cells: ultrapooled human liver microsomes
# T1 sequence (P19224 27-532): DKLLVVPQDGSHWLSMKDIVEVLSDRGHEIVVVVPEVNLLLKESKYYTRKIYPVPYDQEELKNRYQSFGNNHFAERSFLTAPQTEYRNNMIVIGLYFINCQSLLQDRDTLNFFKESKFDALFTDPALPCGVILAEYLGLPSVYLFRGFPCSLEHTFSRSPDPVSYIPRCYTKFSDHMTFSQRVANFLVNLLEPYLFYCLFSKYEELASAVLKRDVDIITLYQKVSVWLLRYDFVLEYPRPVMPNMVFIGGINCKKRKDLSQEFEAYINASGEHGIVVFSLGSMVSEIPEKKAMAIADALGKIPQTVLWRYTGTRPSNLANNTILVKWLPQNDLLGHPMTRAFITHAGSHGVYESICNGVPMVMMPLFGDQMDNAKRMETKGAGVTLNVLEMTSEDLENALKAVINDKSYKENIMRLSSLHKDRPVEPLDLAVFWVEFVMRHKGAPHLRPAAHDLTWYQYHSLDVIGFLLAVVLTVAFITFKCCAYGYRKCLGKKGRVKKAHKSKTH
# Assay: UGT1A6-catalyzed N-acetylserotonin glucuronidation in human liver microsomes
# Type: in vitro ADME
# Conditions: at 50 µM
# Experimental: The inhibitory effects of EAM-2201 on UGT1A1, UGT1A3, UGT1A4, UGT1A6, UGT1A9 and UGT2B7 were evaluated using LC-MS/MS and the cocktail of UGT substrates as previously described. Each incubation mixture was prepared in a final volume of 100 µL as follows: ultrapooled human liver microsomes (0.2 mg/mL), 5 mM UDPGA, 10 mM magnesium chloride, alamethicin (25 µg/mL), 50 mM Tris buffer (pH 7.4), various concentrations of EAM-2201 in DMSO (final concentrations of 1–50 µM, 0.5% DMSO) and the UGT enzyme-specific substrates of two cocktail sets (set A: 0.5 µM SN-38, 2 µM chenodeoxycholic acid and 0.5 µM trifluoperazine; set B: 1 µM N-acetylserotonin, 0.2 µM mycophenolic acid and 1 µM naloxone, acetonitrile content, 0.5%). […] Supernatant from sets A and B (50 µL of each) was mixed and aliquots (5 µL) were analyzed by LC-MS/MS. […]
# The metabolites formed from the six UGT cocktail substrates were simultaneously measured using LC-MS/MS [41]. […] Each metabolite was quantified via SRM in the negative ion mode: chenodeoxycholic acid 24-acyl-β-glucuronide, 567.2 > 391.0; mycophenolic acid glucuronide, 495.2 > 318.9; and propofol glucuronide (IS), 353.3 > 177.1; and in the positive ion mode: SN-38 glucuronide, 569.0 > 393.0; trifluoperazine glucuronide, 584.2 > 408.1; N-acetylserotonin-β-D-glucuronide, 395.2 > 219.0; naloxone 3-β-D-glucuronide, 504.0 > 310.0; and meloxicam (IS), 352.0 > 115.1. […]
structure (smiles),measurement,value
"CCc1ccc(C(=O)c2cn(CCCCCF)c3ccccc23)c2ccccc12 [EAM-2201, (4-ethyl-1-naphthalenyl)[1-(5-fluoropentyl)-1H-indol-3-yl]-methanone]",inhibition of UGT1A6-catalyzed N-acetylserotonin glucuronidation,negligibly inhibited
